From paper PMC6100113, “Involvement of CYP4F2 in the Metabolism of a Novel Monophosphate Ester Prodrug of Gemcitabine and Its Interaction Potential In Vitro” (Molecules : A Journal of Synthetic Chemistry and Natural …, 2018)

Legend:
[1] = Metabolite identification by UPLC/Triple TOF MS in human liver microsomes; format: in vitro ADME; set-up: key: √: metabolites were detected by high-resolution mass spectrometry; conditions: Compound-3 10 μM, 1 mg/mL microsomes, NADPH, 60 min, HRMS
Description: (§1) For metabolite identification, a higher concentration of Compound-3 (10 μM) was incubated with liver microsomes (1 mg/mL) in the presence of NADPH (1 mM) and primary human hepatocytes at a density of 1 × 10^6 cell/mL. Samples were collected at 0 min and 60 min with the addition of ice-cold acetonitrile. After vortexing and centrifugation, the supernatant was transferred into a new tube and evaporated to dryness. The samples were then reconstituted in 100 μL of water and methanol (v/v, 9:1). An aliquot of 10 μL of reconstituted solution was injected into UPLC/Triple TOF 5600^+ MS for metabolite identification.
(§2) Identification of Compound-3 metabolites was carried out using Acquity UPLC/Triple TOF 5600^+ system. Chromatographic separation for Compound-3 and its metabolites were achieved by an Acquity UPLC HSS T3 column (100 × 2.1 mm i.d., […]; Waters Corp.) maintained at 40 °C. The mobile phase was a mixture of 0.02% formic acid in 5 mM ammonium acetate (A) and methanol (B). The gradient elution was started from 2% B and maintained for 4 min, then increased linearly to 75% B over the next 4 min and maintained for 8 min. […] The flow rate was 0.4 mL/min and the eluent was monitored by UV detection at 280 nm.
(§3) For mass detection, a Triple TOF 5600^+ mass spectrometer (AB Sciex, Framingham, MA, USA) was operated in positive ion electrospray (ES-positive) mode with the source temperature at 500 °C and scan range from m/z 100 to 1000 Da. Other parameters were set as follows: ion spray voltage, 5500 V; decluttering potential, 80 V; curtain gas, 40 psi; ion source gas 1, 55 psi; and ion source gas 2, 50 psi. Collision energies of 25 and 65 eV were used for TOF MS and product ion scans, respectively, and a collision energy spread of 20 was used in the MS/MS analysis. Information-dependent acquisition (IDA), together with real-time multiple mass defect filter, was used to trigger acquisition of MS/MS spectra.

[2] = Metabolite identification by UPLC/Triple TOF MS in human intestinal microsomes; format: in vitro ADME; set-up: key: √: metabolites were detected by high-resolution mass spectrometry; conditions: Compound-3 10 μM, NADPH, 60 min, HRMS
Description: as §1, §2, §3

[3] = Metabolite identification by UPLC/Triple TOF MS in human hepatocytes; format: in vitro ADME; set-up: key: √: metabolites were detected by high-resolution mass spectrometry; conditions: Compound-3 10 μM, 1 × 10^6 cell/mL, 60 min, HRMS
Description: as §1, §2, §3

CYP4F2 [4] = target: T1, CYP4F2 (Homo sapiens, UniProt P78329); assay: Reaction phenotyping with recombinant CYP4F2; format: in vitro ADME; conditions: Compound-3 1 μM with recombinant CYP4F2 50 nM, NADPH, 37 °C (Figure S2)
T1 construct: purchased Corning Gentest
T1 sequence (P78329 5-520): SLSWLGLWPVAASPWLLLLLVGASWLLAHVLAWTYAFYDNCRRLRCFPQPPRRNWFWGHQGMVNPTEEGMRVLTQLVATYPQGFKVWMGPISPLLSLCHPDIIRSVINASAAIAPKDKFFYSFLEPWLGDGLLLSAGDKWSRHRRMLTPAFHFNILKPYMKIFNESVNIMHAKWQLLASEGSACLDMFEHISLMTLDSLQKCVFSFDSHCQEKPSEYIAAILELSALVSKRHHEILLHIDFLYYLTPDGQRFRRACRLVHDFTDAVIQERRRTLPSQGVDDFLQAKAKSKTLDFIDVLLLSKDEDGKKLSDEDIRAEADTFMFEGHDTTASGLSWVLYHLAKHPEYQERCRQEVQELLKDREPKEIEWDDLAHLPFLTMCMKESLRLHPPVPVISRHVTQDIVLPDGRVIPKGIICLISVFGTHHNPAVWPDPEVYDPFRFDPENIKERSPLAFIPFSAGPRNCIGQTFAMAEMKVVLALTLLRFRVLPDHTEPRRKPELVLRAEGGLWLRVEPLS
Description: Compound-3 was incubated separately with human cDNA-expressed cytochrome P450s (CYP1A2, CYP2B6, CYP2C8, CYP2C9, CYP2C19, CYP2D6, CYP3A4, CYP4A11, CYP4F2 and CYP4F3). The incubation mixtures contained individual CYP isoenzymes (50 nM), potassium phosphate buffer (100 mM, pH 7.4), NADPH (1 mM), and Compound-3 (1 µM). The final volume of the incubation mixture was 50 µL. Before the start of the incubation, reaction mixtures were warmed up at 37 °C for 10 min. The reaction was initiated with the addition of NADPH and the incubations were performed at 37 °C in a water bath. […] Control samples without NADPH but substrates were included. The samples were then centrifuged and aliquots of 10 μL of the supernatants were transferred onto LC-MS/MS for the analysis of Compound-3 and M4 (carboxylic acid) levels.
The following are available online. Figure S1. Gemcitabine Formation from Compound-3 Hydrolysis as a function of alkaline phosphatase protein concentrations. Compound-3 (1 μM) was incubated with alkaline phosphatase concentrations ranging from 0.01–0.2 mg/mL at 37 °C (n = 3). Figure S2. Metabolites of Compound-3 in human recombinant CYP4F2. Compound-3 (1 μM) was incubated with human recombinant CYP4F2 (50 nM) in the presence of NADPH at 37 °C (n = 3).

[5] = Metabolite identification by UPLC/Triple TOF MS in rat intestinal microsomes; format: in vitro ADME; set-up: key: √: metabolites were detected by high-resolution mass spectrometry; conditions: Compound-3 10 μM, NADPH, 60 min, HRMS
[6] = Metabolite identification by UPLC/Triple TOF MS in rat liver microsomes; format: in vitro ADME; set-up: key: √: metabolites were detected by high-resolution mass spectrometry; conditions: Compound-3 10 μM, 1 mg/mL microsomes, NADPH, 60 min, HRMS
Description: as §1, §2, §3

alkaline phosphatase = assay: Hydrolysis of Compound-3 by alkaline phosphatase (gemcitabine formation); format: in vitro ADME; set-up: key to detected in matrix ALP: √: metabolites were detected by high-resolution mass spectrometry; conditions: incubation of Compound-3 with alkaline phosphatase, HRMS
Description: Compound-3 was incubated with alkaline phosphatase, and the linearity of gemcitabine formation as a function of time and protein concentration was first examined. The reaction mixtures consisted of alkaline phosphatase, 100 mM phosphate buffer (pH 7.4) and Compound-3 (10 μM). The final volume of the incubation mixture was 200 μL. The mixture was warmed up at 37 °C for 2 min prior to the initiation of the reaction with the addition of the enzyme. At specified time points, 25 μL of the incubation mixtures was added to 100 μL cold acetonitrile containing the internal standard to terminate the reaction. Levels of gemcitabine were determined by LC-MS/MS. […] Compound-3 was tested at concentrations ranging from 0 to 200 μM. Kinetic parameters of Compound-3 in alkaline phosphatase were calculated using GraphPad Prism (Version 6.0, GraphPad Software Inc., San Diego, CA) and nonlinear regression analysis. Equation used was as the following (the Michaelis-Menten equation):V = (Vmax × [S])/(Km + [S])(1) where V is the rate of metabolite formation, Vmax is the maximum velocity, Km is the Michaelis constant (substrate concentration at 0.5 Vmax), and [S] is the substrate concentration.

[7] = test system: Compound-3 metabolism in human liver microsomes; assay: Inhibition of Compound-3 metabolism in HLM by selective chemical inhibitors of CYP isozymes; format: in vitro ADME; conditions: HLM 0.2 mg/mL, 1 μM Compound-3; HET-0016 1 µM, ketoconazole 1 µM, quercetin 10 µM, other inhibitors at the concentrations of b45
Description: Incubation contained 0.2 mg/mL human liver microsomes, 100 mM phosphate buffer (pH 7.4), 1 mM NADPH, 1 μM Compound-3, and inhibitors at specified concentrations. Compound-3 remaining was calculated based on concentrations after incubation in the presence or absence of respective inhibitors.

CYP4F2 [8] = target: T1, CYP4F2; assay: CYP4F2-mediated drug interaction (inhibition of CYP4F2); format: in vitro ADME; conditions: substrate Compound-3 1 μM, CYP4F2 10 nM, 10 min, M4 formation; read-out: IC50, inhibition of CYP4F2 mediated metabolism of Compound-3
Description: CYP4F2-mediated drug interactions were examined in two separate setting: pafuramidine as the substrate and Compound-3 as the inhibitor; and Compound-3 as the substrate and pafuramidine as the inhibitor. The reaction system contained 10 nM CYP4F2, 100 mM phosphate buffer (pH 7.4), 1 mM NADPH, and substrate (pafuramidine 1.5 μM or Compound-3 1 μM). Inhibitor (Compound-3 or pafuramidine) concentrations ranged from 0 to 10,000 nM. The incubation time was 5 min for pafuramidine and 10 min for Compound-3. Incubation temperature was 37 °C. LC-MS/MS analysis was performed as described above for the levels of DB775 or M4 (carboxylic acid metabolite of Compound-3).

[9] = substrate: CCCCCCCCCCCCCCCCCCOCCOP(=O)(O)OCC1OC(n2ccc(N)nc2=O)C(F)(F)C1O; assay: Formation kinetics of M4 (carboxylic acid) from Compound-3 by CYP4F2; format: in vitro ADME, human; conditions: other: CYP4F2 10 nM, 10 min, substrate inhibition model, estimated; pH 7.4; 37.0 °C
Description: To investigate the formation kinetics of carboxylic acid metabolite (M4) from Compound-3, varying concentrations of Compound-3 (0–10 µM) were incubated with 10 nM CYP4F2 and 1 mM NADPH in 100 mM phosphate buffer (pH 7.4). The reactions were carried at 37 °C for 10 min and terminated with the addition of ice-cold acetonitrile containing the internal standard. Samples were then centrifuged, and aliquots of 10 μL of the supernatants were analyzed by LC-MS/MS for M4 levels.
Kinetic parameters of Compound-3 in recombinant human CYP4F2 were calculated using Enzyme Kinetics Modules of SigmaPlot (Version 14.0, Systat Software, San Jose, CA, USA). An uncompetitive substrate inhibition equation was also used:V = (Vmax × [S])/{Km + [S] × (1 + [S]/Ki)}(2) where Ki is the disassociation constant describing the inhibitor-enzyme interaction.

Nc1ccn(C2OC(COP(=O)(O)OCCOCCCCCCCCCCCCCCCCCC=O)C(O)C2(F)F)c(=O)n1 (stereo not shown) [Compound M2]
detected in matrix HLM [1]: √ | detected in matrix HIM [2]: √ | detected in matrix Human Hepatocytes [3]: √ | incubation time at which metabolite formation peaked (CYP4F2 [4]): 5 min | detected in matrix RIM [5]: √

Nc1ccn(C2OC(COP(=O)(O)OCCOCCCCCCCCCCCCCCCCCCO)C(O)C2(F)F)c(=O)n1 (stereo not shown) [Compound M3]
detected in matrix HLM [1]: √ | detected in matrix RLM [6]: √ | detected in matrix HIM [2]: √ | detected in matrix Human Hepatocytes [3]: √ | incubation time at which metabolite formation peaked (CYP4F2 [4]): 5 min | detected in matrix RIM [5]: √

Nc1ccn(C2OC(COP(=O)(O)OCCOCCCCCCCCCCCCCCCCCC(=O)O)C(O)C2(F)F)c(=O)n1 (stereo not shown) [Compound M4]
detected in matrix HLM [1]: √ | detected in matrix RLM [6]: √ | detected in matrix HIM [2]: √ | detected in matrix Human Hepatocytes [3]: √ | incubation time at which metabolite formation peaked (CYP4F2 [4]): 60 min | detected in matrix RIM [5]: √

Nc1ccn([C@@H]2O[C@H](CO)[C@@H](O)C2(F)F)c(=O)n1 [Gemcitabine, 2′,2′-difluorodeoxycytidine]
detected in matrix ALP (alkaline phosphatase): √

CC(=O)N1CCN(c2ccc(OCC3COC(Cn4ccnc4)(c4ccc(Cl)cc4Cl)O3)cc2)CC1 (stereo not shown) [ketoconazole]
inhibition of Compound-3 metabolism in HLM [7]: moderate inhibition

CONC(=N)c1ccc(-c2ccc(-c3ccc(C(=N)NOC)cc3)o2)cc1 [pafuramidine, reference compound]
IC50 (CYP4F2 [8]): 240 nM

O=c1c(O)c(-c2ccc(O)c(O)c2)oc2cc(O)cc(O)c12 [quercetin]
inhibition of Compound-3 metabolism in HLM [7]: moderate inhibition

B1: CYP4F2 (Homo sapiens) (protein)
chain: T1 sequence (P78329 5-520)
notes: purchased Corning Gentest
Km [9]: 0.69 µM
